Reference: ChEMBL document CHEMBL1909046, “DrugMatrix in vitro pharmacology data”
pIC50, pKi: −log10 of the molar value.

What was measured:
[1] = target: T1, Alpha-1B adrenergic receptor (Rattus norvegicus, UniProt P15823); assay: DRUGMATRIX: Alpha-1B adrenergic receptor radioligand binding (ligand: prazosin); type: cell membranes, Wistar, Liver, Membrane; conditions: Not Active = under 50% inhibition at 10 µM; for pIC50: read-out: IC50; for pKi: read-out: Ki
T1 sequence (P15823 whole entry): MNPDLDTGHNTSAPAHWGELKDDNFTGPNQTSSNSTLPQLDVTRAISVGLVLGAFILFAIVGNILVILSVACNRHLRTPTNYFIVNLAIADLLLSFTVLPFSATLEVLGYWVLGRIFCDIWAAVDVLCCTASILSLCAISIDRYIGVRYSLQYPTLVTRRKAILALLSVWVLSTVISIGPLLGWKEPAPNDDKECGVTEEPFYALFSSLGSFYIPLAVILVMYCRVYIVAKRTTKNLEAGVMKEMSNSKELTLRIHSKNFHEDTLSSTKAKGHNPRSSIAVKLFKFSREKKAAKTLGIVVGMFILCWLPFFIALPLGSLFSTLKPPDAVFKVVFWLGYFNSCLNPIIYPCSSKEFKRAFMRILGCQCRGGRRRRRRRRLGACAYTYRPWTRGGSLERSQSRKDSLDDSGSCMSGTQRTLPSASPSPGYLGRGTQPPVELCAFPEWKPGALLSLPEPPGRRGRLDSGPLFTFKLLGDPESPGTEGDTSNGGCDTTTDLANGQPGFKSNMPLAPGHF

[2] = target: T2, Alpha-2A adrenergic receptor (Homo sapiens, UniProt P08913); type: cell membranes, Sf9, Membrane; conditions: for pIC50: read-out: IC50; for pKi: read-out: Ki; for IC50: sf9; on all read-outs here: in other assays of this panel Not Active means under 50% inhibition at 10 µM
T2 sequence (P08913 whole entry): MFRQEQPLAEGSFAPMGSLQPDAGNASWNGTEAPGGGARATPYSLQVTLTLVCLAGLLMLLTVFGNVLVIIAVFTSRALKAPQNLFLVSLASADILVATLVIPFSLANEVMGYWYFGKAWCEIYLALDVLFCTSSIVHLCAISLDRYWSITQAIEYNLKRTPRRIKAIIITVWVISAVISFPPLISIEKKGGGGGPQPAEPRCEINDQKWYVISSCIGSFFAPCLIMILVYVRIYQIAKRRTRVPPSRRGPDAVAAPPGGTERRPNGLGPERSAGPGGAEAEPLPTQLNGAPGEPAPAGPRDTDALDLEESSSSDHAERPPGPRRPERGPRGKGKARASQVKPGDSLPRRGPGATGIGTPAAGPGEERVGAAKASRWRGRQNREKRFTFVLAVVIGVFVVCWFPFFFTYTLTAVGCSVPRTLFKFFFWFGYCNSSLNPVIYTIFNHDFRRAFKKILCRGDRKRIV

Calcitonin receptor = target: T3, Calcitonin receptor (Homo sapiens, UniProt P30988); type: cell membranes, Membrane; conditions: t47d; further: in other assays of this panel Not Active means under 50% inhibition at 10 µM
T3 sequence (P30988 whole entry): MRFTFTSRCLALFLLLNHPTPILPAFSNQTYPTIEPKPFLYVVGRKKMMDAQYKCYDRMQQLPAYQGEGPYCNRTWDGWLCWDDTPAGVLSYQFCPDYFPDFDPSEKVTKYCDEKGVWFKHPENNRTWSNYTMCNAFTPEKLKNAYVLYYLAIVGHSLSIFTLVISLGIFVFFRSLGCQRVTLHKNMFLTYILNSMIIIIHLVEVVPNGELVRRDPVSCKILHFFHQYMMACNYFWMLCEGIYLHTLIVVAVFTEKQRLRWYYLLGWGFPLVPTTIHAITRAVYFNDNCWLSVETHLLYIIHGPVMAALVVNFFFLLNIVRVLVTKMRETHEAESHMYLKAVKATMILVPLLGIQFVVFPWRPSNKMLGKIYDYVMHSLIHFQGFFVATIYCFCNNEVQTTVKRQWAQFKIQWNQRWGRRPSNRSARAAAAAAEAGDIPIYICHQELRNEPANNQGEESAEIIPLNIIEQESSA

[3] = target: T4, Cholecystokinin receptor type A (Homo sapiens, UniProt P32238); type: cell membranes, Membrane; conditions: 1321-n1; further: in other assays of this panel Not Active means under 50% inhibition at 10 µM
T4 sequence (P32238 whole entry): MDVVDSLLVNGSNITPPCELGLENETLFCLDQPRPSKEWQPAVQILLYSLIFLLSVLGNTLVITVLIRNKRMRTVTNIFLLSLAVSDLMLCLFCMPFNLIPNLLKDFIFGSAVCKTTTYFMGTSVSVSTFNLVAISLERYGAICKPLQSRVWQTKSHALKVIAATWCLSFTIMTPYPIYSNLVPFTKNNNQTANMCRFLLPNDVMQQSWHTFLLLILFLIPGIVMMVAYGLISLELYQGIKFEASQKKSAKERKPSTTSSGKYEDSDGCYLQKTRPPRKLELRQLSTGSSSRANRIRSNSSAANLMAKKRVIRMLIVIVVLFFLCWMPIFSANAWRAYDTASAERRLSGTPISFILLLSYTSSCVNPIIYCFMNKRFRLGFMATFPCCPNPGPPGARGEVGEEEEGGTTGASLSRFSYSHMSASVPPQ

[4] = DRUGMATRIX: GABAA, Flunitrazepam, Central radioligand binding (ligand: [3H] Flunitrazepam); type: cell membranes, Rattus norvegicus, Wistar, Brain, Membrane; conditions: Not Active = under 50% inhibition at 10 µM
Melanocortin receptor 4 = Melanocortin receptor 4 (Homo sapiens, UniProt P32245); type: cell membranes, HEK293, Membrane; conditions: hek293; further: in other assays of this panel Not Active means under 50% inhibition at 10 µM
[5] = target: Protein phosphatase 3 catalytic subunit alpha (Homo sapiens, UniProt Q08209); design: species or system Escherichia coli

Sequence of Melanocortin receptor 4 (P32245 whole entry): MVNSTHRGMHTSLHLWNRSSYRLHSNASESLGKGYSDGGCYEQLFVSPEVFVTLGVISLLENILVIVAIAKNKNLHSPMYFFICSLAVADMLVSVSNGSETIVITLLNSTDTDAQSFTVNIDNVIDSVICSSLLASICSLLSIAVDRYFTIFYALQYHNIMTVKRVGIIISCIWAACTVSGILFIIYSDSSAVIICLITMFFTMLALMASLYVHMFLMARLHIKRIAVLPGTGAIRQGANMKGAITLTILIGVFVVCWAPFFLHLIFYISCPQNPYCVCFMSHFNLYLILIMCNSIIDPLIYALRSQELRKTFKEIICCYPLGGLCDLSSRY

| SMILES | pIC50 [1] | pKi [1] | pIC50 [2] | pKi [2] | IC50 (Calcitonin receptor) | IC50 [3] | IC50 [4] | Ki [4] | IC50 (Melanocortin receptor 4) | IC50 [5] | IC50 [1] | IC50 [2] |
| --- | --- | --- | --- | --- | --- | --- | --- | --- | --- | --- | --- | --- |
| CC(C)[C@@]1(NC(=O)[C@@H]2C[C@@H]3c4cccc5[nH]cc(c45)C[C@H]3N(C)C2)O[C@@]2(O)[C@@H]3CCCN3C(=O)[C@H](Cc3ccccc3)N2C1=O.CS(=O)(=O)O [DIHYDROERGOCRISTINE MESYLATE] | 8.64 | 8.90 | 8.70 | 9.13 | Not Active | Not Active | Not Active | Not Active | Not Active | Not Active | – | – |
| CC(=O)O[C@@]12CO[C@@H]1C[C@H](O)[C@@]1(C)C(=O)[C@H](O)C3=C(C)[C@@H](OC(=O)[C@H](O)[C@@H](NC(=O)OC(C)(C)C)c4ccccc4)C[C@@](O)([C@@H](OC(=O)c4ccccc4)[C@H]21)C3(C)C.O.O.O [DOCETAXEL] | – | – | – | – | Not Active | Not Active | Not Active | Not Active | Not Active | Not Active | Not Active | Not Active |
| COc1cc2nc(N3CCN(C(=O)C4COc5ccccc5O4)CC3)nc(N)c2cc1OC (configuration not stated) [DOXAZOSIN] | 9.12 | 9.38 | – | – | Not Active | Not Active | Not Active | Not Active | Not Active | Not Active | – | Not Active |
| C[C@H]1c2cccc(O)c2C(=O)C2=C(O)[C@]3(O)C(=O)C(C(N)=O)=C(O)[C@@H](N(C)C)[C@@H]3[C@@H](O)[C@@H]21.O [DOXYCYCLINE] | – | – | – | – | Not Active | Not Active | Not Active | Not Active | Not Active | Not Active | Not Active | Not Active |
| O=C(CCCN1CC=C(n2c(=O)[nH]c3ccccc32)CC1)c1ccc(F)cc1 [DROPERIDOL] | 7.74 | 8.01 | 5.53 | 5.95 | Not Active | Not Active | Not Active | Not Active | Not Active | Not Active | – | – |
| CC(C)[C@H]1C(=O)N2CCC[C@H]2[C@]2(O)O[C@](NC(=O)[C@@H]3C=C4c5cccc6[nH]cc(c56)C[C@H]4N(C)C3)(C(C)C)C(=O)N12 [ERGOCORNINE] | 8.28 | 8.54 | 8.20 | 8.63 | Not Active | Not Active | Not Active | Not Active | Not Active | Not Active | – | – |
| C[C@]12CC[C@@H]3c4ccc(O)cc4CC[C@H]3[C@@H]1CCC2=O [ESTRONE] | – | – | – | – | Not Active | Not Active | Not Active | Not Active | Not Active | Not Active | Not Active | Not Active |
| OC(Cn1cncn1)(Cn1cncn1)c1ccc(F)cc1F [FLUCONAZOLE] | – | – | – | – | Not Active | Not Active | Not Active | Not Active | Not Active | Not Active | Not Active | Not Active |
| CC(C)C(=O)Nc1ccc([N+](=O)[O-])c(C(F)(F)F)c1 [FLUTAMIDE] | – | – | – | – | Not Active | Not Active | Not Active | Not Active | Not Active | Not Active | Not Active | Not Active |
| N=C(N)NCCN1CCCCCCC1 [GUANETHIDINE] | – | – | – | – | Not Active | Not Active | Not Active | Not Active | Not Active | Not Active | Not Active | Not Active |
